The term IC50 denotes the concentration needed to halve the response being measured.

SMILES strings stand for the structures.

Our source for the IC50 values is patent US20140206681A1, “BTK INHIBITORS” (priority 2013, published 2014).

For one test, the system named is HeLa cells. Briefly: [3H]Adenosine uptake functional cellular assay. As to conditions: Homo sapiens, HeLa, accumulation of [3H]adenosine into HeLa cells; compound range 10 μM to […]; read-out: Adenosine uptake inhibition IC50. The test is classed as cell-based. As to the method:
Compounds are also screened in an adenosine uptake functional cellular assay using the protocol described below. The adenosine uptake inhibition assay may be used to identify compounds with the potential for a negative cardiovascular side effect.
Adenosine uptake activity was determined by monitoring the accumulation of tritiated adenosine into HeLa cells (ATCC catalog # CCL-2) using a PMT-based radiometric detection instrument. […] These cells were incubated overnight at 37° C. in a humidified atmosphere with 5% (v/v) CO2. After this time the growth medium was removed and replaced with 40 μL assay medium comprising: Hanks balanced salts solution (HBSS; Thermo Fisher Catalog # SH30268.01)+5% (v/v) FBS. […] 40 μL of compound in the assay medium was dispensed into individual wells of the Cytostar-T plates and the plates were incubated for 30 minutes under ambient laboratory conditions. Following this incubation, 20 μL of 500 nM [^3H]adenosine (American Radiolabeled Chemicals Inc. Catalog # ART0287) was added in the assay medium and incubated for a further 60 minutes under ambient laboratory conditions. The amount of radiolabel accumulation was then determined using a Perkin Elmer Topcount NXT microplate reader. In brief, HeLa cells adhere to the bottom of the Cytostar-T plate, uptake of [^3H]adenosine into these cells brings the radiolabel into sufficient proximity to excite the scintillant in the base of the plates. These events are captured by single PMT, time-resolved coincidence counting. IC50 values were determined by 4 parameter robust fit of counts per second values vs. (Log10) compound concentrations.

Test [1] deals with T1, BTK enzyme (recombinant full-length BTK, hBTK) (Homo sapiens, UniProt Q06187).
T1 construct: recombinant protein from baculovirus-transfected Sf9 cells: full-length BTK, 6HIS-tag cleaved; 6HIS (cleaved yes); made in house; host or cells: baculovirus-transfected Sf9 cells
T1 sequence (Q06187 whole entry): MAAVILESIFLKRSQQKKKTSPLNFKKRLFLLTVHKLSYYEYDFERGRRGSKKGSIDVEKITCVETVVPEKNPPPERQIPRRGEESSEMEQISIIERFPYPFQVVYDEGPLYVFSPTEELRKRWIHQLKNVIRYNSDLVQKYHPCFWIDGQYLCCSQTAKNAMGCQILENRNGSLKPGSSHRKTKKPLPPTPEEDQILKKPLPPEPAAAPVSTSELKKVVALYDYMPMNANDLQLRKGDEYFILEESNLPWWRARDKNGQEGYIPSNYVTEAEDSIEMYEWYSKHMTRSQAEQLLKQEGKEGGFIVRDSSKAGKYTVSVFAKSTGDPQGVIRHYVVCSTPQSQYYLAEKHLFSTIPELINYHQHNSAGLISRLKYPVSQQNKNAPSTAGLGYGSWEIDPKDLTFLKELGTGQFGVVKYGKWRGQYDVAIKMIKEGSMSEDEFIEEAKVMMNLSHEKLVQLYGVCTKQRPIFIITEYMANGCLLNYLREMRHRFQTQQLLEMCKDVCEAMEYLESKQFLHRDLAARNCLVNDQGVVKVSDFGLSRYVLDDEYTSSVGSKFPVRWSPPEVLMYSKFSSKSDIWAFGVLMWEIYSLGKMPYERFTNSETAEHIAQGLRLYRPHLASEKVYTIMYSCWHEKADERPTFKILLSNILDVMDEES
Briefly: BTK enzyme activity assay, LANCE TR-FRET. As to conditions: 50 pM hBTK, 2 μM biotin-A5-peptide, 25 μM ATP; 60 min compound & enzyme incubation; read-out: IC50 BTK activity value. The format is biochemical. For orientation: Time-resolved FRET reads energy transfer from a long-lived donor to a nearby acceptor.

Turning to `CN1C[C@@H]2CC[C@@H](c3nc(-c4ccc(C(=O)Nc5cc(C(F)(F)F)ccn5)cc4)c4c(N)nccn34)CN2C1=O` [Example 3, 4-(8-amino-3-((6R,8aS)-2-methyl-3-oxooctahydroimidazo[1,5-a]pyridin-6-yl)imidazo[1,5-a]pyrazin-1-yl)-N-(4-(trifluoromethyl)pyridin-2-yl)benzamide], the figures for the 50% inhibitory concentration (IC50) (in the test on HeLa cells; in test [1]) were 792 nM and 7.2 nM, respectively.

As for `Nc1nccn2c([C@@H]3CC[C@H]4CCC(=O)N4C3)nc(-c3ccc(C(=O)Nc4cc(C(F)(F)F)ccn4)cc3)c12` [Example 4, 4-(8-amino-3-((6R,8aS)-3-oxooctahydroindolizin-6-yl)imidazo[1,5-a]pyrazin-1-yl)-N-(4-(trifluoromethyl)pyridin-2-yl)benzamide], the 50% inhibitory concentration (IC50) in the test with HeLa cells was 61.9 nM; in test [1] it was 0.1 nM.

`Nc1nccn2c([C@@H]3CC[C@H]4CCC(=O)N4C3)nc(-c3ccc(C(=O)Nc4ccccn4)cc3)c12` [Example 6, 4-(8-amino-3-((6R,8aS)-3-oxooctahydroindolizin-6-yl)imidazo[1,5-a]pyrazin-1-yl)-N-(pyridin-2-yl)benzamide]: the IC50 with HeLa cells turned out to be 184 nM; in test [1], 2 nM.

As to `Cc1cnc(NC(=O)c2ccc(-c3nc([C@@H]4CC[C@H]5CCC(=O)N5C4)n4ccnc(N)c34)cc2)s1` [Example 8, 4-(8-amino-3-((6R,8aS)-3-oxooctahydroindolizin-6-yl)imidazo[1,5-a]pyrazin-1-yl)-N-(5-methylthiazol-2-yl)benzamide], the IC50 with HeLa cells is 355 nM; in test [1], 2.2 nM.

`Nc1nccn2c([C@H]3CC[C@@H]4CCC(=O)N4C3)nc(-c3ccc(C(=O)Nc4ccccn4)cc3)c12` [Example 9, 4-(8-amino-3-((6S,8aR)-3-oxooctahydroindolizin-6-yl)imidazo[1,5-a]pyrazin-1-yl)-N-(pyridin-2-yl)benzamide]: the figures for the half-inhibitory concentration (IC50) (in the test with HeLa cells; in test [1]) were 287 nM and 194 nM, respectively.

Turning to `Nc1nccn2c([C@H]3CC[C@H]4CCC(=O)N4C3)nc(-c3ccc(C(=O)Nc4cc(C(F)(F)F)ccn4)cc3)c12` [Example 10, 4-(8-amino-3-((6S,8aS)-3-oxooctahydroindolizin-6-yl)imidazo[1,5-a]pyrazin-1-yl)-N-(4-(trifluoromethyl)pyridin-2-yl)benzamide], the half-maximal inhibitory concentration (IC50) in the test on HeLa cells stood at 1340 nM; in test [1], 14.7 nM.

`Nc1nccn2c([C@@H]3CC[C@@H]4CCC(=O)N4C3)nc(-c3ccc(C(=O)Nc4cc(C(F)(F)F)ccn4)cc3)c12` [Example 11, 4-(8-amino-3-((6R,8aR)-3-oxooctahydroindolizin-6-yl)imidazo[1,5-a]pyrazin-1-yl)-N-(4-(trifluoromethyl)pyridin-2-yl)benzamide]: the IC50 in the test with HeLa cells came out at 511 nM; in test [1] it was 15.3 nM.

Take `N#Cc1ccnc(NC(=O)c2ccc(-c3nc([C@@H]4CC[C@H]5CCC(=O)N5C4)n4ccnc(N)c34)c(F)c2)c1` [Example 15, 4-{8-amino-3-[(6R,8aS)-3-oxooctahydroindolizin-6-yl]imidazo[1,5-a]pyrazin-1-yl}-N-(4-cyanopyridin-2-yl)-3-fluorobenzamide]: the 50% inhibitory concentration (IC50) in the test on HeLa cells amounted to 71.9 nM; in test [1], 0.21 nM.

With `Nc1nccn2c([C@@H]3CC[C@H]4CCC(=O)N4C3)nc(-c3ccc(C(=O)Nc4cc(C5CC5)ccn4)cc3F)c12` [Example 16, 4-{8-amino-3-[(6R,8aS)-3-oxooctahydroindolizin-6-yl]imidazo[1,5-a]pyrazin-1-yl}-N-(4-cyclopropylpyridin-2-yl)-3-fluorobenzamide], the IC50 with HeLa cells was found to be 75.1 nM; in test [1] it was 0.2 nM.

Turning to `CCc1ccnc(NC(=O)c2ccc(-c3nc([C@@H]4CC[C@H]5CCC(=O)N5C4)n4ccnc(N)c34)cc2)c1` [Example 18, 4-{8-amino-3-[(6R,8aS)-3-oxooctahydroindolizin-6-yl]imidazo[1,5-a]pyrazin-1-yl}-N-(4-ethylpyridin-2-yl)benzamide], the values for the IC50 (in the test with HeLa cells; in test [1]) were 63.5 nM and 0.16 nM, respectively.

For the compound `Nc1nccn2c([C@@H]3CC[C@H]4CCC(=O)N4C3)nc(-c3ccc(C(=O)Nc4cc(C5CC5)ccn4)cc3)c12` [Example 19, 4-{8-amino-3-[(6R,8aS)-3-oxooctahydroindolizin-6-yl]imidazo[1,5-a]pyrazin-1-yl}-N-(4-cyclopropylpyridin-2-yl)benzamide], the IC50 turned out to be 233 nM with HeLa cells and 0.18 nM in test [1].

`Nc1nccn2c([C@@H]3CC[C@H]4CCC(=O)N4C3)nc(-c3ccc(C(=O)Nc4nccc(C(F)(F)F)n4)cc3)c12` [Example 20]: the figures for the IC50 (in the test on HeLa cells; in test [1]) were 2380 nM and 2.2 nM, respectively.

Regarding `CC(F)(F)c1ccnc(NC(=O)c2ccc(-c3nc([C@@H]4CC[C@H]5CCC(=O)N5C4)n4ccnc(N)c34)c(F)c2)c1` [Example 21, 4-{8-amino-3-[(6R,8aS)-3-oxooctahydroindolizin-6-yl]imidazo[1,5-a]pyrazin-1-yl}-N-[4-(1,1-difluoroethyl)pyridin-2-yl]-3-fluorobenzamide], the IC50 with HeLa cells came out at 234 nM; in test [1] it was 0.21 nM.

Take `Nc1nccn2c([C@@H]3CC[C@H]4CCC(=O)N4C3)nc(-c3ccc(C(=O)Nc4cc(C(F)(F)F)ccn4)cc3F)c12` [Example 23, 4-{8-amino-3-[(6R,8aS)-3-oxooctahydroindolizin-6-yl]imidazo[1,5-a]pyrazin-1-yl}-3-fluoro-N-[4-(trifluoromethyl)pyridin-2-yl]benzamide]: the IC50 with HeLa cells turned out to be 4.13 nM; in test [1] it was 0.11 nM.

`Nc1nccn2c([C@@H]3CC[C@H]4CCC(=O)N4C3)nc(-c3ccc(C(=O)Nc4cc(C(F)(F)F)ccn4)c(F)c3)c12` [Example 24, 4-{8-amino-3-[(6R,8aS)-3-oxooctahydroindolizin-6-yl]imidazo[1,5-a]pyrazin-1-yl}-2-fluoro-N-[4-(trifluoromethyl)pyridin-2-yl]benzamide]: the 50% inhibitory concentration (IC50) was found to be 67 nM with HeLa cells and 0.45 nM in test [1].

As for `C[C@H]1OC(=O)N2C[C@H](c3nc(-c4ccc(C(=O)Nc5cc(C(F)(F)F)ccn5)cc4F)c4c(N)nccn34)CC[C@@H]12` [Example 31, 4-{8-amino-3-[(1R,6R,8aS)-1-methyl-3-oxohexahydro[1,3]oxazolo[3,4-a]pyridin-6-yl]imidazo[1,5-a]pyrazin-1-yl}-3-fluoro-N-[4-(trifluoromethyl)pyridin-2-yl]benzamide], the figures for the 50% inhibitory concentration (IC50) (in the test with HeLa cells; in test [1]) were 104 nM and 0.096 nM, respectively.

On to `C[C@@H]1OC(=O)N2C[C@H](c3nc(-c4ccc(C(=O)Nc5cc(C(F)(F)F)ccn5)cc4F)c4c(N)nccn34)CC[C@@H]12` [Example 33, 4-{8-amino-3-[(1S,6R,8aS)-1-methyl-3-oxohexahydro[1,3]oxazolo[3,4-a]pyridin-6-yl]imidazo[1,5-a]pyrazin-1-yl}-3-fluoro-N-[4-(trifluoromethyl)pyridin-2-yl]benzamide], for which the IC50 was 90.4 nM in the test with HeLa cells and 0.17 nM in test [1].

As for `COc1cc(C(=O)Nc2cc(C3CC3)ccn2)ccc1-c1nc([C@@H]2CC[C@H]3CCC(=O)N3C2)n2ccnc(N)c12` [Example 38, 4-{8-amino-3-[(6R,8aS)-3-oxooctahydroindolizin-6-yl]imidazo[1,5-a]pyrazin-1-yl}-N-(4-cyclopropylpyridin-2-yl)-3-methoxybenzamide], the half-inhibitory concentration (IC50) in the test with HeLa cells was found to be 543 nM; in test [1], 1.9 nM.

With `Nc1nccn2c([C@@H]3CC[C@H]4COCC(=O)N4C3)nc(-c3ccc(C(=O)Nc4cc(C(F)(F)F)ccn4)cc3F)c12` [Example 39], the IC50 in the test with HeLa cells was found to be 57.4 nM; in test [1], 0.12 nM.
